# Assay results: ChEMBL document CHEMBL1145658, “Catharanthus alkaloids XXXVII. 16-Epi-Z-isositsirikine, a monomeric indole alkaloid with antineoplastic activity from Catharanthus roseus and Rhazya stricta” (1983)
# Experiments:
# P388 = assay: In vivo antitumor activity against mouse P388 cells at 2.5 to 10 mg/kg relative to control; format: functional; settings: dose mg/kg 2.5-10
# KB = assay: Cytotoxicity against human KB cells; format: functional; settings: read-out: ED50 (the source's name)
smiles,measurement,setting,value
C/C=C1\CN2CCc3c([nH]c4ccccc34)[C@@H]2C[C@@H]1[C@@H](CO)C(=O)OC,T/C,P388,>=150%
same,EC50,KB,1.2 µg/mL
